In brackets after ≈: the same amount, converted by molar mass. Where two headings read alike, the source gives them in different places.
What was measured:
X. translucent = assay: Preliminary in vitro antibacterial study; type: cell-based
rabbit [1] = conditions: cited from earlier work
[2] = tested on: Rhizoctonia solani (AG2-2IIIB); assay: In vitro activity; type: cell-based; conditions: AG2-2IIIB causing brown patch on creeping bentgrass
honey bee = conditions: cited from earlier work
rat [3] = conditions: cited from earlier work
anthracnose (C. cereale) = assay: Field efficacy test, control of anthracnose on putting green turf; type: in vivo, 'Dominant Plus' creeping bentgrass; conditions: for Turf quality: 1-to-9 scale (9 = best), anthracnose trial; for anthracnose control (in words): 2010, August
earthworms = conditions: cited from earlier work
Sclerotinia homoeocarpa = assay: In vitro sensitivity assay (radial growth on fungicide-amended PDA); type: cell-based; conditions: Clarireedia homoeocarpa
Description: (§1) Three isolates of S. homoeocarpa and two isolates of C. cereale were selected to evaluate ningnanmycin (Ningnanmycin 10WP, Deqiang Biological Co., LTD. Harbin, Helongjiang, China) in vitro activities using 5 three-fold dilutions from 0.81 to 0.01 μg a.i./ml. […] Based on preliminary experiments, five dilutions of triticonazole were used, ranging from 0.81 to 0.01 μg a.i/ml for isolates of S. homoeocarpa and from 6.25 to 0.01 μg a.i./ml for isolates of C. cereale. All isolates were prepared for long-term storage on pieces of dried filter paper maintained at −80° C. Filter paper sections containing each isolate were removed from −80° C. storage and placed on PDA amended with 0.05 μg/ml each of chloramphenicol, streptomycin, and tetracycline (PDA+++). After 3 days, mycelium-containing plugs (1×1 cm) were transferred to water agar for another 2 days. Then, water agar plugs (0.45 cm diameter) were cut from the periphery of the colony using a cork borer and placed on the center of Petri dishes containing non-amended PDA and PDA amended with the serial concentrations of each fungicide with three replicates per isolate. Radial growth was measured after three days (72 h) incubation at room temperature for isolates of S. homoeocarpa and seven days for isolates of C. cereale. Relative Growth (RG) was calculated by dividing colony diameter on amended PDA by that on the non-amended PDA. EC50 values were then calculated using the method described by Secor et al. (Fungicide resistance assays for fungal plant pathogens. Methods Mol Biol. 835:385-392, 2012). The in vitro sensitivity assay repeated twice and EC50 value of each isolates was determined as the mean of EC50 values from two assays.

Colletotrichum cereale = assay: as above; type: cell-based
Description: as §1

Acidovorax aveane = assay: Preliminary in vitro antibacterial study; type: cell-based; conditions: ningnanmycin at 100 ug/ml
Xanthomonas pruni = assay: Preliminary in vitro antibacterial study; type: cell-based; conditions: ningnanmycin at 100 ug/ml
mammals = conditions: Hu et al. 1997; cited from earlier work
[4] = tested on: M. griesea (turf gray leaf pot); assay: Preliminary in vitro experiment; type: cell-based
green algae = conditions: green algae, 72 h; cited from earlier work
guinea pig = conditions: cited from earlier work
creeping bentgrass = conditions: field plots treated with ningnanmycin, 2010 and 2011
[5] = tested on: Ophiosphaerella herpotricha (spring dead spot); assay: Preliminary in vitro experiment; type: cell-based
P. aphanidermatum = assay: In vitro activity on turfgrass strains; type: cell-based, Pythium aphanidermatum
rabbit [6] = conditions: cited from earlier work; remark: listed apart in the source
[7] = tested on: Magnaporthe poae (summer patch); type: cell-based; conditions: preliminary experiment
[8] = tested on: brown patch (Rhizoctonia solani AG2-2IIIB); assay: Preliminary field experiment, brown patch; type: in vivo; conditions: creeping bentgrass
Fish = conditions: species not given; cited from earlier work
rat [9] = conditions: cited from earlier work; remark: listed apart in the source
Pantoea ananatis = assay: Preliminary in vitro antibacterial study; type: cell-based; conditions: ningnanmycin at 100 ug/ml

**Q.** Which in vitro activity (X. translucent; ningnanmycin at 100 ug/ml, preliminary study) does the source give for `CNCC(=O)NC(CO)C(=O)NC1C(C(N)=O)OC(n2ccc(N)nc2=O)C(O)C1O` [ningnanmycin, 4-sarcosinamido-L-serinamido-4-deoxy-β-D-pyranoglucuronamido] here?
**A.** did not show any in vitro activity

**Q.** And the “activity against strains infecting turfgrass” value (X. translucent; ningnanmycin at 100 ppm)?
**A.** not been able to detect any activity

**Q.** What about the Irritation to eye (rabbit [1]) of the same compound?
**A.** no

**Q.** And the in vitro activity [2]?
**A.** showed in vitro activity

**Q.** And the “Non-mammals, honey bee” value (honey bee)?
**A.** 200 μg/bee

**Q.** And the “Acute toxicity Dermal LD50” value (rat [3])?
**A.** >2,000 mg/Kg mg/kg

**Q.** What about the Turf quality (anthracnose (C. cereale); Ningnanmycin 10WP 0.08 g/m^2, 7 d interval, Aug. 8, 2010) of the same compound?
**A.** 5

**Q.** And the Turf quality (anthracnose (C. cereale); Ningnanmycin 10WP 0.08 g/m^2, 7 d interval, Aug. 15, 2010)?
**A.** 4

**Q.** What about the Turf quality (anthracnose (C. cereale); Ningnanmycin 10WP 0.15 g/m^2, 7 d interval, Aug. 8, 2010) of the same compound?
**A.** 5

**Q.** What about the Turf quality (anthracnose (C. cereale); Ningnanmycin 10WP 0.15 g/m^2, 7 d interval, Aug. 15, 2010) of the same compound?
**A.** 5

**Q.** What about the Turf quality (anthracnose (C. cereale); Ningnanmycin 10WP 0.15 g/m^2, 10 d interval, Aug. 8, 2010) of the same compound?
**A.** 5

**Q.** What about the Turf quality (anthracnose (C. cereale); Ningnanmycin 10WP 0.15 g/m^2, 10 d interval, Aug. 15, 2010) of the same compound?
**A.** 4

**Q.** And the Turf quality (anthracnose (C. cereale); Ningnanmycin 10WP 0.30 g/m^2, 10 d interval, Aug. 8, 2010)?
**A.** 5

**Q.** What about the Turf quality (anthracnose (C. cereale); Ningnanmycin 10WP 0.30 g/m^2, 10 d interval, Aug. 15, 2010) of the same compound?
**A.** 4

**Q.** And the Turf quality (anthracnose (C. cereale); Ningnanmycin 10WP 0.30 g/m^2, 14 d interval, Aug. 8, 2010)?
**A.** 4

**Q.** What about the Turf quality (anthracnose (C. cereale); Ningnanmycin 10WP 0.30 g/m^2, 14 d interval, Aug. 15, 2010) of the same compound?
**A.** 4

**Q.** What about the “anthracnose control (in words)” value (anthracnose (C. cereale); 0.15 g/m^2, 7-day interval) of the same compound?
**A.** satisfactory level of control

**Q.** What about the “anthracnose control (in words)” value (anthracnose (C. cereale); 0.15 g/m^2, 14-day interval) of the same compound?
**A.** lowest suppression of anthracnose but still provided significant suppression compared to the untreated

**Q.** What about the “anthracnose control (in words)” value (anthracnose (C. cereale); 0.30 g/m^2, 7-day interval) of the same compound?
**A.** highest level of anthracnose control

**Q.** What about the “anthracnose control (in words)” value (anthracnose (C. cereale); 0.30 g/m^2, 14-day interval) of the same compound?
**A.** lowest suppression of anthracnose but still provided significant suppression compared to the untreated

**Q.** What about the “Anthracnose severity (%)” value (anthracnose (C. cereale); Ningnanmycin 10WP 0.08 g/m^2, 7 d interval, Aug. 1, 2011) of the same compound?
**A.** 16%

**Q.** What about the “Anthracnose severity (%)” value (anthracnose (C. cereale); Ningnanmycin 10WP 0.08 g/m^2, 7 d interval, Aug. 8, 2011) of the same compound?
**A.** 4%

**Q.** What about the “Anthracnose severity (%)” value (anthracnose (C. cereale); Ningnanmycin 10WP 0.08 g/m^2, 7 d interval, Aug. 15, 2011) of the same compound?
**A.** 15%

**Q.** What about the “Anthracnose severity (%)” value (anthracnose (C. cereale); Ningnanmycin 10WP 0.08 g/m^2, 7 d interval, Jul. 25, 2011) of the same compound?
**A.** 20%

**Q.** And the “Anthracnose severity (%)” value (anthracnose (C. cereale); Ningnanmycin 10WP 0.15 g/m^2, 7 d interval, Aug. 1, 2011)?
**A.** 9%

**Q.** What about the “Anthracnose severity (%)” value (anthracnose (C. cereale); Ningnanmycin 10WP 0.15 g/m^2, 7 d interval, Aug. 8, 2011) of the same compound?
**A.** 3%

**Q.** And the “Anthracnose severity (%)” value (anthracnose (C. cereale); Ningnanmycin 10WP 0.15 g/m^2, 7 d interval, Aug. 15, 2011)?
**A.** 9%

**Q.** And the “Anthracnose severity (%)” value (anthracnose (C. cereale); Ningnanmycin 10WP 0.15 g/m^2, 7 d interval, Jul. 25, 2011)?
**A.** 17%

**Q.** And the “Anthracnose severity (%)” value (anthracnose (C. cereale); Ningnanmycin 10WP 0.15 g/m^2, 10 d interval, Aug. 1, 2011)?
**A.** 18%

**Q.** What about the “Anthracnose severity (%)” value (anthracnose (C. cereale); Ningnanmycin 10WP 0.15 g/m^2, 10 d interval, Aug. 8, 2011) of the same compound?
**A.** 8%

**Q.** What about the “Anthracnose severity (%)” value (anthracnose (C. cereale); Ningnanmycin 10WP 0.15 g/m^2, 10 d interval, Aug. 15, 2011) of the same compound?
**A.** 17%

**Q.** What about the “Anthracnose severity (%)” value (anthracnose (C. cereale); Ningnanmycin 10WP 0.15 g/m^2, 10 d interval, Jul. 25, 2011) of the same compound?
**A.** 21%

**Q.** And the “Anthracnose severity (%)” value (anthracnose (C. cereale); Ningnanmycin 10WP 0.30 g/m^2, 10 d interval, Aug. 1, 2011)?
**A.** 20%

**Q.** What about the “Anthracnose severity (%)” value (anthracnose (C. cereale); Ningnanmycin 10WP 0.30 g/m^2, 10 d interval, Aug. 8, 2011) of the same compound?
**A.** 3%

**Q.** What about the “Anthracnose severity (%)” value (anthracnose (C. cereale); Ningnanmycin 10WP 0.30 g/m^2, 10 d interval, Aug. 15, 2011) of the same compound?
**A.** 15%

**Q.** And the “Anthracnose severity (%)” value (anthracnose (C. cereale); Ningnanmycin 10WP 0.30 g/m^2, 10 d interval, Jul. 25, 2011)?
**A.** 16%

**Q.** And the “Anthracnose severity (%)” value (anthracnose (C. cereale); Ningnanmycin 10WP 0.30 g/m^2, 14 d interval, Aug. 1, 2011)?
**A.** 14%

**Q.** What about the “Anthracnose severity (%)” value (anthracnose (C. cereale); Ningnanmycin 10WP 0.30 g/m^2, 14 d interval, Aug. 8, 2011) of the same compound?
**A.** 6%

**Q.** What about the “Anthracnose severity (%)” value (anthracnose (C. cereale); Ningnanmycin 10WP 0.30 g/m^2, 14 d interval, Aug. 15, 2011) of the same compound?
**A.** 13%

**Q.** What about the “Anthracnose severity (%)” value (anthracnose (C. cereale); Ningnanmycin 10WP 0.30 g/m^2, 14 d interval, Jul. 25, 2011) of the same compound?
**A.** 20%

**Q.** And the “adverse effects in non-target organisms” value (earthworms)?
**A.** no adverse effects were observed

**Q.** What about the EC50 (Sclerotinia homoeocarpa; 72 h, isolate 761SHME, radial growth after 72 h, mean of two assays) of the same compound?
**A.** 0.02 µg/mL (≈ 0.0451 µM)

**Q.** And the EC50 (Sclerotinia homoeocarpa; 72 h, isolate LWC 27, radial growth after 72 h, mean of two assays)?
**A.** 0.01 µg/mL (≈ 0.0226 µM)

**Q.** What about the EC50 (Sclerotinia homoeocarpa; 72 h, isolate PST4, radial growth after 72 h, mean of two assays) of the same compound?
**A.** 0.01 µg/mL (≈ 0.0226 µM)

**Q.** And the EC50 (Sclerotinia homoeocarpa; read-out: mean EC50, mean of three isolates)?
**A.** 0.01 µg/mL (≈ 0.0226 µM)

**Q.** What about the EC50 (Colletotrichum cereale; 168 h, isolate ABR1, radial growth after seven days, mean of two assays) of the same compound?
**A.** 0.36 µg/mL (≈ 0.812 µM)

**Q.** What about the EC50 (Colletotrichum cereale; 168 h, isolate ABR12, radial growth after seven days, mean of two assays) of the same compound?
**A.** 0.24 µg/mL (≈ 0.541 µM)

**Q.** What about the EC50 (Colletotrichum cereale; read-out: mean EC50, mean of two isolates) of the same compound?
**A.** 0.3 µg/mL (≈ 0.677 µM)

**Q.** And the in vitro activity (Acidovorax aveane)?
**A.** did not show any in vitro activity

**Q.** And the in vitro activity (Xanthomonas pruni)?
**A.** did not show any in vitro activity

**Q.** And the “carcinogenicity, reproductive toxicity, developmental effects” value (mammals)?
**A.** no carcinogenicity, reproductive toxicity, or developmental effects have been observed

**Q.** What about the toxicity to mammals (mammals) of the same compound?
**A.** very low toxicity

**Q.** What about the in vitro activity [4] of the same compound?
**A.** demonstrated in vitro activity

**Q.** What about the “Aquatic plants EC50” value (green algae) of the same compound?
**A.** 12.0 mg/L (72 h)

**Q.** What about the Sensitization (guinea pig) of the same compound?
**A.** no

**Q.** And the “plant growth regulator effects” value (creeping bentgrass)?
**A.** no plant growth regulator effects were observed

**Q.** What about the in vitro activity [5] of the same compound?
**A.** demonstrated in vitro activity

**Q.** And the in vitro activity (P. aphanidermatum; concentration not given)?
**A.** no in vitro activity

**Q.** What about the “activity against strains infecting turfgrass” value (P. aphanidermatum; ningnanmycin at 100 ppm) of the same compound?
**A.** not been able to detect any activity

**Q.** What about the Irritation to skin (rabbit [6]) of the same compound?
**A.** no

**Q.** What about the in vitro activity [7] of the same compound?
**A.** demonstrated in vitro activity

**Q.** And the “efficacy against brown patch” value [8]?
**A.** little to no efficacy

**Q.** What about the “Fish LC50 (96 h)” value (Fish) of the same compound?
**A.** >1,000 mg/L

**Q.** And the “Acute toxicity Oral LD50” value (rat [9]; female)?
**A.** 12,100 mg/kg (female)

**Q.** What about the “Acute toxicity Oral LD50” value (rat [9]; male) of the same compound?
**A.** 6,810 mg/kg (male)

**Q.** And the in vitro activity (Pantoea ananatis)?
**A.** did not show any in vitro activity

— patent publication US20130324493A1, “COMPOSITIONS COMPRISING NINGNANMYCIN AND USES THEREFOR” (North Carolina State University, priority 2012, published 2013)
